Biological target: Rv0812 (Mycobacterium tuberculosis, UniProt Q79FW0)
Sequence (Q79FW0 whole entry): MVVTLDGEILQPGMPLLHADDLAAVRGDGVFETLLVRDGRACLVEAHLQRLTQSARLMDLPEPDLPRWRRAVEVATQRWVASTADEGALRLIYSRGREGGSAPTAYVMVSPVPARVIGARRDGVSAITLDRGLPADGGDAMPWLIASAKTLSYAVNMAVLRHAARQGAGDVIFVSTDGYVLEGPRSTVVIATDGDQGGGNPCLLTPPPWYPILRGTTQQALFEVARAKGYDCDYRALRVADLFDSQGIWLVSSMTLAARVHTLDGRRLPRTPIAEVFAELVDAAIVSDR

Cc1ncc(COP(=O)(O)O)c(C=O)c1O [PLP]
X-ray crystal structure (cocrystal with 0.2 mM PLP): PLP was fit into the corresponding electron density

Source: PMC8105722 (The Journal of Experimental Medicine, 2021)
